From patent US20250020651A1, “PERSONALIZED MODULATION THERAPY FOR CANCER” (Faeth Therapeutics, Inc., priority 2021, published 2025)

Assays:
[1] = system: Pancreatic cancer cells such as BxPC3, CFPAC1, PANC1, DANG, and PATU8902; assay: Crystal Violet cell growth with chemotherapy drugs in complete or P/S/G free media; assay type: cell-based, Human; conditions: P/S/G free media vs complete media, +10% dialyzed FBS, 3 days, Crystal Violet staining
Protocol: A study was performed to evaluate the efficacy of a disclosed composition in the treatment of cancer when combined with a chemotherapy drug. Pancreatic cancer cells such as BxPC3, CFPAC1, PANC1, DANG, and PATU8902 were treated with either Gemcitabine (GEM), Paclitaxel (PAC), GEM+PAC, and FOLFIRINOX (which is a combination of 5FU, Oxaliplatin, Folinic acid, and Irinotecan), in combination with complete media, or with media free of the amino acids […]), as indicated in FIG. 4 rows A-D. Cells were seeded in 96-well plates and in complete media+10% FBS. 24 hours later, cells were washed with PBS followed by addition of the indicated drugs with either complete or P/S/G free media+10% dialyzed FBS. Cells were grown for 3 more days, and cell growth was measured using Crystal Violet staining. […] Error bars denote the standard deviation.

[2] = system: Pancreatic cancer cell lines such as BxPC3, CFPAC1, PANC1, DANG and PATU8902; assay: Crystal Violet cell growth with serabelisib in complete or P/S/G free media; assay type: cell-based, Human; conditions: P/S/G free media vs complete media, 3 days, Crystal Violet staining
Protocol: A study was performed to evaluate the efficacy of disclosed compositions in the treatment of cancer when combined with a targeted anti-cancer therapy. Pancreatic cancer cell lines such as BxPC3, CFPAC1, PANC1, DANG and PATU8902 were treated with an alpha specific PI3K inhibitor, serabelisib. Cells were seeded in 96-well plates and in complete media+10% FBS. 24 hours later, cells were washed with PBS followed by addition of serabelisib with either complete or P/S/G free media+10% dialysed FBS (FIG. 6A-6F). Cells were grown for 3 more days and cell growth was measured using Crystal Violet staining. Error bars denote standard deviation. […] P/S/G starvation pushes the response curve down and to the left meaning lower concentrations of drug achieve the same cell kill.

SMILES | effect of restriction of proline, serine, and glycine on cell growth response to the drug [1] | cell kill by serabelisib under P/S/G starvation [2]
Nc1ccn([C@@H]2O[C@H](CO)[C@@H](O)C2(F)F)c(=O)n1 [gemcitabine, Gemcitabine] | sensitized cancer cells | –
Nc1nc2cc(-c3ccc4ncc(C(=O)N5CCOCC5)n4c3)ccc2o1 [serabelisib] | – | improved cell kill at lower drug concentrations
CC(=O)O[C@H]1C(=O)[C@@]2(C)[C@H]([C@H](OC(=O)c3ccccc3)[C@]3(O)C[C@H](OC(=O)[C@H](O)[C@@H](NC(=O)c4ccccc4)c4ccccc4)C(C)=C1C3(C)C)[C@]1(OC(C)=O)CO[C@@H]1C[C@@H]2O [paclitaxel, Paclitaxel] | sensitized cancer cells | –
